According to paper PMC10030565, “Ubiquitous occurrence of a dimethylsulfoniopropionate ABC transporter in abundant marine bacteria” (The ISME Journal, 2023):

Legend:
[1] = molecular target: DmpX (SBP encoded by SPO2441) (Ruegeria pomeroyi, UniProt Q5LQP7); test: biochemical; type: binding, Ruegeria pomeroyi DSS-3; parameters: key to Dissociation constant (Kd): -: not detectable; conditions: ITC; for binding affinity (in words): DMSP analogues compared to DMSP; for Dissociation constant (Kd): dash = not detectable
Description: (§1) The genes encoding SBPs from R. pomeroyi DSS-3 or R. nubinhibens ISM were amplified from the genome of R. pomeroyi DSS-3 or R. nubinhibens ISM by PCR using FastPfu DNA polymerase (TransGen Biotech, China). The dmpX homologue from P. sp. strain HTCC7211 (locus tag HTCC7211_00013840) was synthesized by the Beijing Genomics Institute (China). The related genes were then cloned into the NdeI/XhoI restriction sites of the pET-22b vector (Novagen, Germany) with a C-terminal His tag. Point mutations in DmpX were introduced using the PCR-based method and verified by DNA sequencing. The SBPs and corresponding mutant forms were produced in E. coli BL21 (DE3). The cells were cultured in the LB medium with 0.1 mg/ml ampicillin at 37 °C to an OD600 of 0.8–1.0 and then induced at 18 °C for 16 h with 0.5 mM isopropyl-β-D-thiogalactopyranoside (IPTG). After induction, cells were collected by centrifugation, resuspended in the lysis buffer (50 mM Tris-HCl, 100 mM NaCl, 0.5% glycerol, pH 8.0), and lysed by a pressure crusher. The proteins were first purified by affinity chromatography on a Ni^2+-NTA column (GE Healthcare, US), and then fractionated by gel filtration on a Superdex G75 column (GE healthcare, US).
(§2) Isothermal titration calorimetry (ITC) measurements were performed at 25 °C using a MicroCal iTC200 system (GE Healthcare, US) or MicroCal PEAQ-ITC system (Malvern Panalytical, UK). The sample cell was loaded with 280 μl of protein sample (30–100 μM), and the reference cell contained distilled water. The syringe was filled with 40 μl of substrates (100 μM–1 mM). The proteins and substrates were kept in the same buffer containing 10 mM Tris-HCl (pH 8.0) and 100 mM NaCl.

[2] = molecular target: RnDmpX (Roseovarius nubinhibens, UniProt A3SME7); test: ITC titration of DMSP into recombinant RnDmpX; type: binding, Roseovarius nubinhibens ISM
Description: as §1
(§3) Isothermal titration calorimetry (ITC) measurements were performed at 25 °C using a MicroCal iTC200 system (GE Healthcare, US) or MicroCal PEAQ-ITC system (Malvern Panalytical, UK). […]

[3] = test system: SBP encoded by SPO1131; test: ITC titration of DMSP into recombinant SBP encoded by SPO1131; type: binding, Ruegeria pomeroyi DSS-3
Description: as §1, §3

[4] = test system: SBP encoded by SPOA0231; test: ITC titration of DMSP into recombinant SBP encoded by SPOA0231; type: binding, Ruegeria pomeroyi DSS-3
Description: as §1, §3

[5] = test system: RnDmpX Tyr200Ala mutant; test: ITC titration of DMSP into RnDmpX Tyr200Ala mutant; type: binding, Roseovarius nubinhibens ISM; conditions: Tyr200 mutated to Ala
Description: as §1, §3

[6] = test system: RnDmpX Tyr200Phe mutant; test: ITC titration of DMSP into RnDmpX Tyr200Phe mutant; type: binding, Roseovarius nubinhibens ISM; conditions: Tyr200 mutated to Phe
Description: as §1, §3

[7] = test system: TmoX (encoded by SPO1548); parameters: method as in PMID 24550299, PMID 26283766; conditions: cited from earlier work
[8] = molecular target: DmpX^7211 (Candidatus Pelagibacter sp. HTCC7211, UniProt B6BQI1); test: ITC titration of substrates into recombinant DmpX^7211; type: binding; parameters: key: -: not detectable; conditions: dash = not detectable
Description: as §1, §2

[9] = test system: R. pomeroyi DSS-3 WT; test: Uptake of 14C-labeled DMSP, wild-type; type: cell-based, Ruegeria pomeroyi DSS-3; conditions: 5 min, 30 °C, mean ± S.D. n = 3
Method: (§4) Triplicates of 1 µl ^14C:^12C-DMSP in 3 ml scintillation fluid (EcoLume Liquid Scintillation Cocktail, MP Biomedical, US) were measured on a liquid scintillation analyzer (Tri-Carb 2800TR, Perkin Elmer, UK) after overnight equilibration.
(§5) A single colony of R. pomeroyi DSS-3 WT, ΔdmpXWV mutant, or complemented ΔdmpXWV mutant was inoculated into 5 ml of marine broth medium (MB) and grown overnight at 30 °C under constant shaking (170 rpm). 1 ml preculture was inoculated into 50 ml MB and grown at 30 °C with shaking (130 rpm) until an OD540 of ~0.5-0.7 was reached, then used for DMSP uptake assays.
(§6) Due to a relatively low radiochemical and mid-millimolar range molar concentration of the ^14C:^12C-DMSP stock, we could not conduct uptake kinetics experiments. Instead, we used three DMSP concentrations (50, 150, and 300 µM) and added them to 3 ml of cultures in biological triplicates. Cells were incubated at 30 °C with shaking (130 rpm) for 5 min, filtered onto 0.2 µm pore size Supor filters (∅ 25 mm, Pall Corporation, US), and washed 3x with 1 ml MB medium. Wet filters were transferred to 6 ml scintillation vials and 3 ml EcoLume Liquid Scintillation Cocktail added. After equilibration overnight, samples were measured on a Tri-Carb 2800TR liquid scintillation analyzer. Cells fixed in 2% (vol/vol) freshly prepared paraformaldehyde solution for >15 min at 4 °C in the dark prior to radioisotope addition were used for background correction. Uptake rates were normalized by cell number.
(§7) Bacterial cell numbers used for normalization of uptake rates were determined by flow cytometry. […] 75 to 200-fold sample dilutions in sterile TE buffer (10 mM Tris-HCl, 1 mM EDTA, pH 8.0) were counted in analytical triplicates on a CytoFLEX flow cytometer (Beckman Coulter, UK) at a flow rate of 30 µl min^-1 for 60 sec. The instrument was equipped with a 50 mW 488 nm solid-state diode laser with standard filters and the discriminator set to 525 nm (green fluorescence) (Fig. S1).

[10] = test system: R. pomeroyi DSS-3 ΔdmpXWV::Gm mutant; test: Uptake of 14C-labeled DMSP, ΔdmpXWV::Gm mutant; type: cell-based, Ruegeria pomeroyi DSS-3; conditions: for Uptake rate: ΔdmpXWV::Gm, 5 min, 30 °C, mean ± S.D. n = 3
Method: Bacterial cell numbers used for normalization of uptake rates were determined by flow cytometry [41]. 1 ml culture was fixed with a final concentration of 0.5% (vol/vol) glutaraldehyde (Electron microscopy grade, BDH, AE) for 30 min at 4 °C, snap frozen in liquid nitrogen, and stored at –80 °C. Samples were thawed at 37 °C for 5 min, stained with SYBR gold (Invitrogen, US) (final concentration 10^-4 of commercial stock) for 10 min at 60 °C in the dark. 75 to 200-fold sample dilutions in sterile TE buffer (10 mM Tris-HCl, 1 mM EDTA, pH 8.0) were counted in analytical triplicates on a CytoFLEX flow cytometer (Beckman Coulter, UK) at a flow rate of 30 µl min^-1 for 60 sec. The instrument was equipped with a 50 mW 488 nm solid-state diode laser with standard filters and the discriminator set to 525 nm (green fluorescence) (Fig. S1).

[11] = test system: R. pomeroyi DSS-3 complemented mutant ΔdmpXWV::Gm; test: Uptake of 14C-labeled DMSP, complemented ΔdmpXWV::Gm mutant; type: cell-based, Ruegeria pomeroyi DSS-3; conditions: for Uptake rate: complemented mutant ΔdmpXWV::Gm, 5 min, 30 °C, mean ± S.D. n = 3
Description: To create the ΔdmpXWV knockout mutant regions of homology at the 5′ and 3′ ends of dmpXWV were amplified, alongside the gentamicin cassette from the p34s-Gm plasmid. Amplified DNA fragments were assembled into linearised pk18mobsacB using the HiFi assembly kit (New England Biolabs) according to the manufacturer’s instructions. To construct the complementation plasmid, dmpXWV was cloned into linearised pBBR1McS-km using the HiFi assembly kit. Plasmids were electroporated into competent Escherichia coli S17.1 λpir and conjugated into R. pomeroyi DSS-3. The knockout mutant was selected onto minimal media plates containing gentamicin (10 µg/ml), with resultant colonies screened for kanamycin resistance. Kanamycin-sensitive clones were PCR screened and products sequenced to confirm a double crossover. The complemented mutant strain was selected on MB plates containing gentamicin (10 µg/ml) and kanamycin (80 µg/ml), and colonies confirmed by PCR screening and sequencing.
as §4, §5
as §6, with “Cells fixed in 2% (vol/vol) freshly prepared paraformaldehyde solution for >15 min at 4 °C in the dark prior to radioisotope addition were used for background correction. Uptake rates were normalized by cell number.” left out
as §7

Chain of DmpX (SBP encoded by SPO2441) (Q5LQP7 entry or part of it): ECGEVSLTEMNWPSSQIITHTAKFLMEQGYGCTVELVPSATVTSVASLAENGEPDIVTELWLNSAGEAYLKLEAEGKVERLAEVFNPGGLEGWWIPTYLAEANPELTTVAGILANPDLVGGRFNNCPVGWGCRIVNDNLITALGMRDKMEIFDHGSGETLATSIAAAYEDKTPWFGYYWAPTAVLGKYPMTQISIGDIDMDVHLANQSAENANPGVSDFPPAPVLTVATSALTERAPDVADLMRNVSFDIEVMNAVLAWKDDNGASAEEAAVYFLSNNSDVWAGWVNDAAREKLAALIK
Chain of DmpX^7211 (B6BQI1 27-337 limits assumed): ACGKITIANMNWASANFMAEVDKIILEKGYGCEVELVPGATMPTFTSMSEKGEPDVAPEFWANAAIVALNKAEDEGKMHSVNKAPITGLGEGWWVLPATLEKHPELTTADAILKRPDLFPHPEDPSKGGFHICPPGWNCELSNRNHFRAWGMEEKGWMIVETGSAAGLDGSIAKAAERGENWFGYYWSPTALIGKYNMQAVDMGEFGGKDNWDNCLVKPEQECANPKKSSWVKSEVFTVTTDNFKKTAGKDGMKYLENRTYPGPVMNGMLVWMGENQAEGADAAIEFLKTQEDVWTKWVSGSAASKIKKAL
Chain of RnDmpX (A3SME7 entry or part of it): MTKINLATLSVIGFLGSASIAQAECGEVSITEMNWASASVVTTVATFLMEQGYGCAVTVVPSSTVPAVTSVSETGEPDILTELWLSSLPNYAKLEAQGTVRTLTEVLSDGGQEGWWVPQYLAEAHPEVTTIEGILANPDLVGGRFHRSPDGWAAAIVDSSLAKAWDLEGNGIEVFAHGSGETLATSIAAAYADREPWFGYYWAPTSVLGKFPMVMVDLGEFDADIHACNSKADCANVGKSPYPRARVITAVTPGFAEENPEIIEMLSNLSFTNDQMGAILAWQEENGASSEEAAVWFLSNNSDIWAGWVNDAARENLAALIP

C[S+](C)CCC(=O)[O-] [DMSP, Dimethylsulfoniopropionate]
Kd ([1]; 25 °C, 10 mM Tris-HCl pH 8.0, 100 mM NaCl, SPO2441 (DmpX), read-out: Dissociation constant (Kd)): 1100 nM | Kd [2]: 474 nM | high binding affinity for DMSP (in words) [3]: did not | high binding affinity for DMSP (in words) [4]: did not | binding affinity for DMSP (in words) [5]: abolished | binding affinity for DMSP (in words) [6]: abolished | binding affinity to DMSP (in words) [7]: does not show any binding affinity

C[N+](C)(C)CC(=O)O [GBT, glycine betaine]
binding affinity (in words) [1]: little binding affinity | Dissociation constant (Kd) ([1]; SPO2441 (DmpX)): - | Dissociation constant (Kd) [8]: -

C[N+](C)(C)[O-] [TMAO, trimethylamine N-oxide]
binding affinity (in words) [1]: little binding affinity | Dissociation constant (Kd) ([1]; SPO2441 (DmpX)): - | Dissociation constant (Kd) [8]: -

C[S+](C)CCC(=O)[O-] [^14C-DMSP, [1-^14C]DMSP]
Uptake rate ([9]; DMSP concentration 50 µM): 1.852 ± 0.100 fmol cell^-1 min^-1 | Uptake rate ([9]; DMSP concentration 150 µM): 2.267 ± 0.189 fmol cell^-1 min^-1 | Uptake rate ([9]; DMSP concentration 300 µM): 3.095 ± 0.081 fmol cell^-1 min^-1 | reduction of uptake in the mutant in comparison to the wild-type ([10]; 50 μM DMSP, p < 0.001): ~ 5 times | decrease of uptake in the mutant in comparison to the wild-type ([10]; 300 μM DMSP, p < 0.001): ~ 3 times | Uptake rate ([10]; DMSP concentration 50 µM): 0.522 ± 0.040 fmol cell^-1 min^-1 | Uptake rate ([10]; DMSP concentration 300 µM): 1.344 ± 0.150 fmol cell^-1 min^-1 | restoration of import by complementation with dmpXWV (in words) ([11]; complemented mutant versus ΔdmpXWV::Gm): partly restore | Uptake rate ([11]; DMSP concentration 50 µM): 0.946 ± 0.299 fmol cell^-1 min^-1 | Uptake rate ([11]; DMSP concentration 150 µM): 1.221 ± 0.159 fmol cell^-1 min^-1 | Uptake rate ([11]; DMSP concentration 300 µM): 1.893 ± 0.084 fmol cell^-1 min^-1

C[N+](C)(C)CC(O)CC(=O)[O-] (centres unmarked) [carnitine]
binding affinity (in words) [1]: little binding affinity | Dissociation constant (Kd) ([1]; SPO2441 (DmpX)): - | Dissociation constant (Kd) [8]: -

C[N+](C)(C)CCO [choline]
binding affinity (in words) [1]: little binding affinity | Dissociation constant (Kd) ([1]; SPO2441 (DmpX)): -
